# Reference: patent publication US12365651B2, “Use of pirfenidone and derivatives for modulation of B lymphocyte activity and organ protection from acute tissue damage” (Washington University, priority 2017, dated 2025)
# Test system: wild-type (WT) mice (C57BL/6J)
# Test: Closed-chest ischemia (90 minutes) reperfusion (I/R) injury
# Type: in vivo, mouse
# Experimental: Ischemia Reperfusion (I/R) Injury. Hearts from wild-type (WT) mice (C57BL/6J; purchased from Jackson Laboratory) were subjected to ischemia reperfusion (I/R) injury, using the closed-chest ischemia reperfusion model developed by Entman and colleagues (34), and modified as we have described previously (15). For the studies described herein we used 9-10 week old mice that were instrumented, then at 1 week post instrumentation were anesthetized with 1.5% isoflurane, and subjected to 90 minutes of closed-chest ischemia, followed by reperfusion for 2 weeks.
# In order to administer Pirfenidone, mice were fed powdered chow mixed with Pirfenidone (eNovation Chemicals, Bridgewater, NJ, USA, Cat #D404655) at 0.5% in weight or powdered chow alone. […] Unless specifically noted, mice were switched to a diet enriched with Pirfenidone 3 days prior to DT-induced injury or I/R-injury, and maintained on this diet throughout the duration of the experiments. In parallel studies, we fed mice normal chow prior to I/R injury and then administered Pirfenidone acutely at the time of cardiac injury. For these latter studies, mice were injected i.p. with diluent (200 μL phosphate-buffered solution [PBS]) or i.p. with Pirfenidone (200 μL of Pirfenidone [5 mg/mL] in PBS) after reperfusion and the morning after I/R injury (2 injections total). They were switched to Pirfenidone-enriched diet or control diet the evening of I/R injury and maintained on the same diet until completion of the experiment.
# Rosa26-DT Mlc2v-Cre and littermate control WT mice were euthanized 14 days after DT injection, and the hearts were removed and weighed to determine the heart-weight-to-tibia-length-ratio. WT mice were euthanized 14 days after I/R injury and the hearts were removed and weighed to determine the heart-weight-to-tibia-length-ratio. Hearts were processed, paraffin-embedded, and stained with hematoxylin/eosin and Masson's trichrome, as described (38). TUNEL staining was performed with the Millipore (Burlington, MA, USA) S7200 ApopTag Peroxidase In Situ Oligo Ligation Apoptosis Detection Kit according to the manufacturer's instruction.
# Image acquisition. Ultrasound examination of the cardiovascular system was performed using a Vevo 2100 Ultrasound System (VisualSonics Inc, Toronto, Ontario, Canada) equipped with a 30 MHz linear-array transducer, as previously described (15).
# Imaging Protocol. Mice were imaged by echocardiography at the time of ischemia and 2 weeks after reperfusion to evaluate LV structure and function, as described (39). The echocardiographer was blinded to study group assignment. Animals with poor acoustic windows or small areas at risk (<0.45) at the time of ischemia were excluded from further analysis.
# For flow cytometry experiments, mice were euthanized in a CO2 chamber and the hearts were perfused with cold PBS, carefully dissected from extracardiac tissue under a stereo microscope, finely minced, suspended in 3 ml of DMEM, and then digested with 120 U of DNAse (Sigma), 180 U of hyaluronidase (Sigma) and 1350 U of Collagenase (Sigma) for 60 minutes at 37Co. The digested material was filtered through 40 μm filters and pelleted by centrifugation (250×g for 3 minutes at 4° C.) in HBSS supplemented with 2% FCS+0.2% bovine serum albumin (BSA). Red blood cells were lysed in ACK lysis buffer (Invitrogen) for 15′ on ice and the remaining cells were resuspended in 300 μL of FACS buffer (PBS with 2% FCS and 2 mM EDTA). Cultured cells were collected for FACS analysis as described above and resuspended in 300 μL of FACS buffer. Samples were labeled with the fluorescently conjugated antibodies outlined in the table below. Cells were stained for 45 minutes on ice, and washed in FACS buffer prior to analysis. All antibodies from Biolegend were used at 0.2 μL per 300 μL sample, while antibodies from BD biosciences were used at 0.4 μL per 300 μL sample. FACS was performed on Beckton Dickinson analyzers (LSRII, Canto, X20 or Fortessa). […]
# [1] = Pirfenidone chow from 3 days prior to I/R, 2 weeks post I/R, vs control
# [2] = day 4 post I/R, Pirfenidone vs control
compound,measurement,setting,value
"Cc1ccc(=O)n(-c2ccccc2)c1 [Pirfenidone, 5 methyl-1-phenyl-2-[H] pyridone]",LVEF,"B-cell depleted (anti-CD20) + Pirfenidone vs B-cell depleted mice, 2 weeks after I/R, p=0.15",no significant difference
same,LV mass,"B-cell depleted (anti-CD20) + Pirfenidone vs B-cell depleted mice, 2 weeks after I/R, p=0.21",no significant difference
same,LV end-diastolic volume,"B-cell depleted (anti-CD20) + Pirfenidone vs B-cell depleted mice, 2 weeks after I/R, p=0.40",no significant difference
same,percentage of trichrome positive myocardium,"B-cell depleted (anti-CD20) + Pirfenidone vs B-cell depleted mice, 2 weeks after I/R, p=0.43",no significant difference
same,heart-weight-to-tibia length ratio,"B-cell depleted (anti-CD20) + Pirfenidone vs B-cell depleted mice, 2 weeks after I/R, p=0.75",no significant difference
same,"area at risk (segmental wall motion score index, SWMSI)","Pirfenidone chow from 3 days prior to I/R vs control, p=0.68",no difference
same,LV end-diastolic volumes,[1],significant (p=0.02) decrease
same,LVEF,[1],trend (p=0.08) towards improvement
same,heart-weight-to-tibia length ratio,[1],significant decrease
same,LV mass measured by 2-D echocardiography,"Pirfenidone chow from 3 days prior to I/R, 2 weeks post I/R, vs control, p=0.03",significant decrease
same,percentage of myocardium exhibiting collagen staining with Masson's trichrome,"Pirfenidone chow from 3 days prior to I/R, at 2 weeks, vs normal chow, p=0.4",no significant difference
same,heart-weight/tibia length ratio,"acute administration of Pirfenidone after reperfusion then chow 14 days, vs diluent, p=0.015",significantly (p=0.015) reduced
same,area at risk,"acute administration of Pirfenidone after reperfusion, vs diluent, p=0.47",not different
same,CD19+ lymphocytes,[2],significant (p<0.001) reduction
same,subset of CD19+CD11b− B lymphocytes,[2],significant (p<0.001) reduction
same,number of myocardial CD19+ CD86high,"following I/R injury, day 4",significant (p<0.03) decrease
